The values that follow come from patent US20120302546A1, “NOVEL SULFAMIDES EXHIBITING NEUROPROTECTIVE ACTION AND METHODS FOR USE THEREOF” (FOX CHASE CHEMICAL DIVERSITY CENTER, INC., priority 2010, published 2012).

Assay [1] concerns Hippocampal Cultures. Description: Neuroprotection from glutamate excitotoxicity, CFDA neuronal viability assay. Type of assay: cell-based, rat. The note with it: day 20 hippocampal cultures, 5 min 30 μM glutamate, CFDA assay 24 hours after initiation of treatment (FIG. 1-3). As for the experimental part: Pharmacology: Hydroxyethyl sulfamides attenuate glutamate-mediated neuronal viability. As an example, compound II, shown above, is shown to attenuate a decrease in carboxyfluorescein diacetate (CFDA) produced by acute treatment with glutamate in FIG. 1. For these studies, day 20 hippocampal cultures derived from E18 rats were treated for 5 min with 30 μM glutamate. Following removal of the glutamate, cultures were treated with various concentrations of compound II and the CFDA neuronal viability assay was conducted 24 hours after the initiation of treatment. The dotted line labeled “control” represents the mean CFDA value for control culture receiving no treatment. The dotted line labeled “carisbamate” represents the mean CFDA value for the reference compound carisbamate, a putative neuroprotective, anticonvulsant. For the CFDA measurements, RFU is the abbreviation for relative fluorescent units. The reference anticonvulsant compound carisbamate was tested at 100 μM, as lower concentrations were ineffective.
Cell cultures: All compounds are screened with dissociated hippocampal cultures derived from embryonic day 18 rats as the primary test system. With this preparation, primary neurons are used to test for toxicity as well as neuroprotection in a highly relevant experimental system to epilepsy. In brief, hippocampal tissue are obtained commercially through Brain Bits (Springfield, Ill.) and cultures prepared as previously described by Brewer (Brewer, G. J. Serum-free B27/neurobasal medium supports differentiated growth of neurons from the striatum, substantia nigra, septum, cerebral cortex, cerebellum and dentate gyms, J. Neurosci. Res. 1995, 42, 674-683.). The hippocampal neurons are platted at low density (10,000 cell/well) in a 96-well format and maintained in serum-free medium consisting of Neurobasal Medium supplemented with B27 and GlutaMAX (Gibco). Pre-coated poly-L-lysine coated plates are used because of the preferential adherence and survival of hippocampal neurons on this matrix support.
Carboxyfluorescein (CFDA) was used a vital stain for all cell toxicity and neuroprotection studies. With the use of the CytoFluor fluorimeter, the CFDA assay was employed to assess the viability of neurons. CFDA is a dye that becomes fluorescent upon cell entry and cleavage by cytosolic esterases (Petroski, R. E.; Geller, H. M Selective labeling of embryonic neurons cultures on astrocyte monolayers with 5(6)-carboxyfluorescein diacetate (CFDA). J. Neurosci. Methods 1994, 52, 23-32.). Neuronal specificity is obtained relative to astrocytes because the cleaved dye is extruded extracellularly by glia with time, while dye in neurons remains intracellular. […] To further assess the culture responses, a propidium iodide method was used as previously described (Sarafian, T. A.; Kouyoumjian, S.; Tashkin, D.; Roth, M. D. Synergistic cytotoxicity of 9-tetrahydrocannabianol and butylated hydroxyanisole, Tox. Letters, 2002. 133, 171-179.) to measure the number of dead cells. Propidium iodide becomes fluorescent when binding to the DNA of dead cells. Cultures were treated on day 2 with the test agent and then the two assays were conducted after a […] test period. For all assays, a 96-well format was used. For the screen, log concentration-effect studies were conducted from 10 nM to 1 mM with 8 replications. The duration of the test period was five days. Cultures were given a complete change of medium prior to the initiation of the treatment period.
Potent neuroprotection is the distinguishing characteristic that separates this program's anticonvulsants from all other commercial drugs for epilepsy. The experimental details and the rationale for the implemented assays are essential in differentiating these compounds from that of others. The central objective of all neuroprotective assays was their relevancy to excitotoxicity and oxidative stress related to epilepsy. […]

Assay [2] concerns Hippocampal Cultures. Description: Neuroprotection from glutamate excitotoxicity, propidium iodide cell death assay. The note with it: Day 15 Hippocampal Cultures, 30 μM glutamate (FIG. 5). Type of assay: cell-based, rat.
Assay [3] concerns MES-induced seizure spread. Description: Maximal Electroshock Seizure (MES) test in rats. The assay is classed as in vivo. The note with it: Rat MES, 30 mg/kg, oral, vehicle methylcellulose. As for the experimental part: (§1) Methods to measure anticonvulsant activity: All tests were conducted by the Anticonvulsant Screening Program (ASP) of the National Institute of Neurological Disease and Stroke at the National Institutes of Health. The Maximal Electroshock Seizure (MES) or Maximal Seizure Pattern Test: The MES is a model for generalized tonic-clonic seizures (Putnam and Merritt, 1937). It is highly reproducible with consistent endpoints. The behavioral and electrographic seizures generated in this model are consistent with the human disorder. This model identifies those compounds which prevent seizure spread. In the MES test, an electrical stimulus of 0.2 s in duration (50 mA in mice and 150 mA in rat at 60 Hz) is delivered via corneal electrodes primed with an electrolyte solution containing an anesthetic agent. Mice are tested at 30 minutes and 4 hours following doses of 30, 100 and 300 mg/kg of test compound. Test compounds are administered intraperitoneally to the mice. Rats are tested at time intervals between 0.25 and 4 hours following a standard oral dose of 30 mg/kg. Abolition of the hindlimb tonic extensor component indicates the test compound's ability to inhibit MES-induced seizure spread.
(In general: In the maximal electroshock model the usual endpoint is tonic extension of the hind limbs.)

Assay [4] concerns MES-induced seizure spread. Description: Maximal Electroshock Seizure (MES) test in mice. The assay is classed as in vivo. The note with it: Mouse MES, intraperitoneal, vehicle methylcellulose. As for the experimental part: as §1
For assay [5], the system named is 6 Hz corneal stimulation evoked seizures. Description: 6 Hz psychomotor seizure test in mice. The assay is classed as in vivo. Particulars: Mouse 6 Hz, 100 mg/kg, intraperitoneal, vehicle methylcellulose. As for the experimental part:
Methods to measure anticonvulsant activity: All tests were conducted by the Anticonvulsant Screening Program (ASP) of the National Institute of Neurological Disease and Stroke at the National Institutes of Health. The 6 Hz Seizure Test: Compounds were further tested in the 6-Hz psychomotor seizure model (Barton et al., 2001). This model is used to detect seizures that may be useful for the treatment of therapy-resistant partial seizures. For this test, an alternative electrical stimulation paradigm is used with a low frequency (6 Hz), long duration (3 seconds) corneal stimulation. The seizure evoked by this low frequency stimulation is characterized by immobility, forelimb clonus, Straub tail and facial automatisms (Barton et al., 2001). Mice are tested from 15 min to 4 hours following an intraperitoneal dose of 100 mg/kg. Abolition of the clonic seizures indicates the ability of a compound to prevent partial or psychomotor seizures.

For the compound `NS(=O)(=O)NC[C@@H](O)c1ccccc1Cl` [compound III], the “effect on glutamate-mediated decrease in neuronal viability (CFDA)” value in the assay with Hippocampal Cultures [1] is recorded as “efficacious”. Moreover, the “effect on glutamate-mediated increase in cell death (propidium iodide)” value in the assay with Hippocampal Cultures [2] was “efficacious”.
For the compound `NS(=O)(=O)NC[C@@H](O)c1ccccc1Cl` [drawing 54], the “# animals active/# animals tested” value is reported as 1/4 in assay [3] (0.25 hr); 0/4 in assay [3] (0.5 hr); 0/1 in assay [4] (30 mg/kg, 0.5 hr); 2/3 in assay [4] (100 mg/kg, 0.5 hr); 1/1 in assay [4] (300 mg/kg, 0.5 hr); 0/4 in assay [5] (0.25 hr). The “# animals active/# animals tested” value is listed as 1/4 in assay [5] (0.5 hr), 1/4 in assay [5] (1.0 hr) and 0/4 in assay [5] (2.0 hr).
For `NS(=O)(=O)NCC(O)c1ccccc1F` (stereo not shown) [drawing 55], the “# animals active/# animals tested” value is 0/4 in assay [3] (1 hr); 1/4 in assay [3] (2 hr); 2/4 in assay [3] (4 hr); 0/1 in assay [4] (30 mg/kg, 4 hr); 1/3 in assay [4] (100 mg/kg, 4 hr); 1/1 in assay [4] (300 mg/kg, 4 hr). Also, the “# animals active/# animals tested” value in assay [5] (0.25 hr) is 0/4; in assay [5] (0.5 hr), 1/4; in assay [5] (1.0 hr), 1/4; in assay [5] (2.0 hr), 1/4; in assay [5] (4.0 hr) it was 1/4.
